One compound from patent publication US7338932B2, “Methods of modulating functions of polypeptide GalNAc-transferases and of screening test substances to find agents herefor, pharmaceutical compositions comprising such agents and the use of such agents for preparing medicaments” (Glycozym APS, priority 2000, dated 2008) can be followed below.

SMILES strings stand for the structures.

In one assay the target is T1, GalNAc-T4 (Homo sapiens, UniProt Q8N4A0).
T1 construct: using the GalNAc-T4-sol construct that encodes residues 32-578 inserted into pT7T3U19; made in house; host or cells: High Five insect cells (baculovirus, pAcGP67)
As to the kind of experiment: Inhibition of glycosylation dependent (GalNAc-glycopeptide) activity of GalNAc-T4, MALDI-TOF time-course. It counts as biochemical. The note with it: 10 mM benzyl sugar. As to the method:
MALDI-TOF time-course in terminal reactions were performed in reactions of 25 μl containing 2.5 nmol acceptor (glyco)peptide, 40 nmol UDP-GalNAc, and 0.4 μg GalNAc-T4. Sampling of reactions (1 μl) were purified by nano-scale reversed-phase chromatography (Poros R3, PerSeptive Biosystem) and applied directly to the probe with matrix (41). The amount of GalNAc-transferase added was adjusted so that the reaction with the appropriate peptide was near completion in six hours. Reactions were incubated at 37° C. in a shaker bath. At times 0, 2 hours, and 16 hours a 1 μl aliquot was taken and purified. Mass spectra were acquired on either Voyager-DE mass spectrometer equipped with delayed extraction (Perseptive Biosystem Inc.). The matrix used was 2,5-dihydroxybenzoic acid (10 mg/ml, Hewlett-Packard) dissolved in a 2:1 mixture of 0.1% trifluoroacetic acid in 30% aqueous acetonitrile (Rathburn Ltd.).
Quantification of purified proteins was done by Coomassie stained SDS-PAGE and titration of immunoreactivity with the monoclonal antibody, UH6(4G2) (8). […] Wild-type GalNAc-T4 and mutant GalNAc-T4, GalNAc-T4^459H, were analysed with unglycosylated peptides (represented by PSGL-1) or GalNAc glycosylated glycopeptides (represented by GalNAc3TAP25V21) in reactions of 25 μl containing 2.5 nmol acceptor (glyco)peptide, 40 nmol UDP-GalNAc, and 0.4 μg GalNAc-T4. Time-course assays were motioned by MALDI-TOF. Sampling of reactions (1 μl) were purified by nano-scale reversed-phase chromatography (Poros R3, PerSeptive Biosystem) and applied directly to the probe with matrix. Evaluation of inhibition of the glycopeptide specificity of wild-type GalNAc-T4 with free sugars was performed to establish if the lectin domain recognized carbohydrate. […] Further, analysis was performed with 10 mM α-D-GalNAc-1-benzyl, αGlcNAc-benzyl, and fully occupied GalNAc-glycopeptide, GalNAc6TAP25, at 5 mM.

Assay [1] deals with T2, GalNAc-T2 lectin domain (T2ld) (Homo sapiens, UniProt Q10471).
T2 construct: made in house; host or cells: High Five insect cells (baculovirus, pAcGP67-A)
T2 sequence (Q10471 408-571): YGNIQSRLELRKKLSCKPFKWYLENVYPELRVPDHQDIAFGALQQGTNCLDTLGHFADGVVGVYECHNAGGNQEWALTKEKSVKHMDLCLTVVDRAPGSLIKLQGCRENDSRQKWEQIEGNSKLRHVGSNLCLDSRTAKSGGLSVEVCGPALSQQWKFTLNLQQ
As to the kind of experiment: Direct binding ELISA to GalNAc-MUC1 glycopeptide, competitive inhibition, T2ld. How it is done:
(§1) Protein biotinylation was made as previously reported^62. The pH of 1 ml purified protein (0.3 mg/ml) in PBS was adjusted to pH 9 with 1 M NaOH and 40 μl N-hydroxy-succinimidobiotin (Sigma) dissolved in DMF (10 mg/ml) was added. The solution was mixed end-over-end for 2 hours at room temperature, and dialyzed three times against PBS and an equal volume of glycerol was added. The biotinylated proteins were stored at −20° C. in 50% glycerol until use.
(§2) Direct binding ELISA assay was developed as follows: Polystyrene microtiter plates (Maxisorb, Nunc, Denmark) were coated with peptides or enzymatically glycosylated glycopeptides in PBS overnight at 4° C. Plates were washed and blocked with 0.1% Tween20 and 0.2% BSA in PBS for 1 h at room temperature, followed by incubation with biotinylated proteins in PBS with 0.05% Tween20 for 2 h at room temperature. After four washes with PBS, plates were incubated with 1:2,000 dilution streptavidin-HRP (Sigma) in PBS for 30 min at room temperature and washed four times with PBS. Development was performed with 0.5 mg/ml o-phenylenediamine and 0.02% H2O2 at room temperature for 15 min, and reaction stopped by adding 100 μl/well of 0.5 N H2SO4. Competitive inhibition assays were done at end-point titers of GalNAc-transferase proteins with one hour preincubations with inhibitor.
(§3) In binding studies using lectins without biotinylation antibodies to the HIS-tag and the T7-tag, or in some experiments antibodies raised to GalNAc-T2 and -T4 enzymes were used to detect binding.
For orientation: In an ELISA, binding on a coated surface is turned into a signal by an enzyme label.

The target of assay [2] is T3, secreted soluble GalNAc-T2 (sT2) (Homo sapiens, UniProt Q10471).
T3 construct: HIS-tagged secreted human GalNAc-T2 and -T4 were prepared from pAC-GP67-T2-sol and pAC-GP67-T4-sol cDNA; 6xHis (N); thrombin cleavage site (N); T7 tag (N); made in house; host or cells: High Five insect cells (baculovirus)
Nature of the assay: Direct binding ELISA to GalNAc-MUC1 glycopeptide, competitive inhibition, sT2. How it is done: as §1, §2, §3

T3 sequence (Q10471 52-571 limits assumed): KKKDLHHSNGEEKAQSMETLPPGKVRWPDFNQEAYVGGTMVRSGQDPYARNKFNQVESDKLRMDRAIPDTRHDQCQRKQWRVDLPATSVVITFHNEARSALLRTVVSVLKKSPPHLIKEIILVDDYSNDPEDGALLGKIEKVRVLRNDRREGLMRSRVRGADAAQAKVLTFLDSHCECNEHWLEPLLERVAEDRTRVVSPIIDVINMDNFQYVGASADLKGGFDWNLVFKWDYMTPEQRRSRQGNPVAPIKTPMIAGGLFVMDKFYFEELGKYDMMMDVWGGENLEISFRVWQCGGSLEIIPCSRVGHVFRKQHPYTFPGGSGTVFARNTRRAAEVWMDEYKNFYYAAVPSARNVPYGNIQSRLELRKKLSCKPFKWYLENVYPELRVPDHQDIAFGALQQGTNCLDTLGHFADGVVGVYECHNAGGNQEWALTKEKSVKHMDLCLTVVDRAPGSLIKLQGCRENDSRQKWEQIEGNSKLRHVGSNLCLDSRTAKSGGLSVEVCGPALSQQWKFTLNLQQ
T1 sequence (Q8N4A0 32-578): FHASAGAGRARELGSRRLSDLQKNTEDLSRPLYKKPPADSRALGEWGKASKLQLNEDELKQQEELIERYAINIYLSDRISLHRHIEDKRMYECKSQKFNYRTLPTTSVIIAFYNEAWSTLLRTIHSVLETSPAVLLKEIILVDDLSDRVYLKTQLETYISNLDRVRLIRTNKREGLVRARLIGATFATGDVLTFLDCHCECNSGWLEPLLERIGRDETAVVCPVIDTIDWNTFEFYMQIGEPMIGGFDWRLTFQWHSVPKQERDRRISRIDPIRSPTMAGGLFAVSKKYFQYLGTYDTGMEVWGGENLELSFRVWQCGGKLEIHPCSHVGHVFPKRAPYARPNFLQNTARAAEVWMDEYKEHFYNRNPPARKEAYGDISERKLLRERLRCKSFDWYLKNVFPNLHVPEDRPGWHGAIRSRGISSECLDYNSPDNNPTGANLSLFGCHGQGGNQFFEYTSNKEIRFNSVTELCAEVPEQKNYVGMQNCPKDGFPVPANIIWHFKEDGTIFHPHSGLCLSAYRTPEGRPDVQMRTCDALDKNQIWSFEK

As for `CC(=O)N[C@H]1[C@@H](OCc2ccccc2)O[C@H](CO)[C@@H](O)[C@@H]1O` [GlcNAcα-benzyl], the “Inhibition of glycosylation dependent specificity of GalNAc-T4” value on GalNAc-T4 is recorded as “did not inhibit”. For the same compound, the IC50 in assay [1] and in assay [2] was more than 100 mM in each case.

The IC50 is the concentration needed to halve the response being measured. A high value points to weaker potency in that assay.
